Source: patent publication US20080103199A1, “TREATMENT OF PERVASIVE DEVELOPMENTAL DISORDERS” (priority 2006, published 2008)
Like-named read-outs stand apart in the source and are kept apart here.

How the values were obtained:
submissive rats [1] = experiment: Reduction of Submissive Behavior Model (RSBM) of depression, dominant-submissive rat food competition test; assay type: in vivo, Sprague-Dawley rats; conditions: treatment of submissive rats; unpublished observation
Text: In this study, the effects of COMPOUND #7 on dominant or submissive behavior in pairs of rats competing for food are examined. It has been shown that anti-manic drugs, including anticonvulsants, decrease dominance and antidepressant drugs reduce submissiveness. This model uses dominant behavior as a model of mania and submissive behavior as a model of depression. The dominance and submissiveness is defined in a competition test and measured as the relative success of two food-restricted rats to gain access to a feeder. Rats are randomly paired and placed in an apparatus allowing them to compete for a food reward. The dominant-submissive relationship develops over a 2-week period. The submissive or dominant animals in pairs selected after 2 weeks of training were treated orally […] (b.i.d.) with COMPOUND #7 at 3 or 30 mg/kg for 5 weeks. The partner of the drug-treated animal was treated with vehicle.
The objective of this study was to determine if COMPOUND #7 is active in the Reduction of Submissive Behavior Model (RSBM) of depression and the Reduction of Dominant Behavior Model (RDBM) of mania. Measurements were made at two doses (3 and 30 mg/kg) after oral twice a day (b.i.d.) administration. The effect of the drug in the RSBM was compared to the effect of fluoxetine (10 mg/kg) and vehicle (0.5% methylcellulose). The effect of the drug in the RDBM was compared with the effect of lithium (100 mg/kg) and vehicle (0.5% methylcellulose). The endpoints measured were the development of a significant reduction of submissive or dominant behavior and its time of onset.
The DSR developed by two rats competing for food uses the apparatus in FIG. 1.
In the experiments described in this report Sprague-Dawley rats weighing 160 to 180 g were used. Testing for the development of a DSR between paired rats begins with the random assignment of rats into pairs. […]
The test involves placing each member of a pair in opposite chambers of the testing apparatus. […] The test is conducted once a day over a 5-minute period and the time spent on the feeder by each animal is recorded. […]

dominant rats = conditions: administered to dominant rats; literature (Malatynska 2002); cited from earlier work
submissive rats [2] = conditions: treatment of the submissive subject, 3 weeks; literature (Malatynska 2002); cited from earlier work

Row | Compound | Effect on competitive behavior of dominant rats (dominant rats) | Effect on submissive behavior (submissive rats [2]) | other results
1 | CC(N)Cc1ccccc1 (centres unmarked) [amphetamine, reference compound] | – | – | Effect on submissive behavior (submissive rats [1]): ineffective
2 | NC(=O)N1c2ccccc2C=Cc2ccccc21 [carbamazepine] | significantly reduced competitive behavior | – | –
3 | Clc1cccc(Cl)c1N=C1NCCN1 [clonidine] | significantly reduced competitive behavior | – | –
4 | CNCCCN1c2ccccc2CCc2ccccc21 [desipramine] | – | reduced submissive behavior | –
5 | CN1C(=O)CN=C(c2ccccc2)c2cc(Cl)ccc21 [diazepam] | – | ineffective | –
6 | CNCCC(Oc1ccc(C(F)(F)F)cc1)c1ccccc1 (centres unmarked) [fluoxetine] | – | reduced submissive behavior | –
7 | CN(C)CCCN1c2ccccc2CCc2ccccc21 [imipramine] | – | reduced submissive behavior | –
8 | CCCC(CCC)C(=O)[O-].[Na+] [sodium valproate] | significantly reduced competitive behavior | – | –
